# Assay results reported in patent US5637319A, “Controlled-release preparations” (priority 1995, dated 1997).
# Assays:
# [1] = after sulfasalazine to dogs; J. Pharm. Pharmacol., 1995 in press; cited from earlier work
# [2] = Release study of cisplatin capsules with different pore number and amount of gel-forming polymer (FIGS. 1a-c, 2a-c); type: physicochemical
# From the text: The release rate of extremely hydrophilic low-molecular weight drug such as cisplatin from the sustained-release preparation is affected by the following three factors; (1) pore number made on the water-insoluble polymer, (2) pore size and (3) amount of gel-forming material inside the preparation. From the standpoint of mechanical operation of opening many uniform pores, the pore size was fixed to be 800 μm. Under the fixed pore size condition, the effects of the pore number was at first examined and the release patterns of cisplatin from the preparations are shown in FIGS. 1a, b and c. […] The release study data are summarized with respect to the effect of the amount of gel-forming polymer and the results are shown in FIGS. 2a, b and c.
# The test was performed according to the procedure of the paddle method (JPXII). A dissolution media employed were the 1st solution (JPXII, pH 1.2) and the 2nd solution (JPXII, pH 6.8). Nine hundred ml of the dissolution medium was used at 37°±0.1° C. at 100rpm. Test capsule was put into a stainless sinker. After being enclosed in the sinker, the capsule was put into 900 ml of the 1st solution maintained at 37° C. The shaft was then placed in the fluid at 37° C. and the paddle was rotated at 100 rpm. To simulate the transit from gastric to intestinal pH, samples of 1st solution were replaced one hour later with the 2nd solution. The release profile of 5-FU was estimated by measuring the appearance of the drug by HPLC method. The cisplatin concentration was estimated by analyzing for platinum by atomic absorption spectrophotometry.
# [3] = Serum cisplatin concentration after oral administration to rabbits; type: in vivo, rabbit; conditions: sustained-release preparation
# Experimental: The effects of the pore number and the amount of gel-forming polymer on the release profiles of cisplatin was confirmed in the in vivo study after oral administration of the preparations to rabbits using a reference preparation, cisplatin solution, at 20 mg/kg. […] The absorption rate of cisplatin is so rapid that the serum peak level appears within 1 hr.
# In case of preparations of which drug release mechanism is based on the intestinal pressure, drug release profiles of the preparations in Examples 4, 5, 6, 7 and 8 cannot be measured by in vitro release experiments. In addition, in the case of sustained-release preparations in Examples 9, 10 and 11, the long-acting efficiency must be confirmed in the in vivo animal study after oral administration. Therefore, in vivo pharmacokinetics study was performed using beagle dogs and rabbits. In the in vivo study, the preparations of the Examples except examples 6, 10 and 11 were administered to dogs and rabbits, respectively. […] These plasma and serum samples were immediately frozen in a deep freezer at -20° C. until analyzed.
# Plasma 5ASA and 5-FU concentrations were measured by an HPLC method after extraction of the drug from the plasma sample. The serum cisplatin level was determined by analyzing for platinum by atomic absorption spectrophotometry. The plasma calcitonin level was determined by an ELISA method.
# [4] = dog, po
# From the text: FIG. 18. Relationship between the thickness of EC layer of intestinal pressure controlled-release capsules and plasma fluorescein Tmax after oral administration to beagle dogs.
# [5] = parameters: species or system beagle dog; conditions: dog, in vivo
# Experimental: The peak time, Tmax, when the plasma 5-FU level reaches to its maximum level is used as a parameter for estimating the release time of drug in the GI tract after oral administration. […] According to the report of Anderson ([…]), for the dog, gastric emptying is 3-5 h, small intestine transit time is about 1 h and colonic transit time is 10-12 hr. On the other hand, Mizuta et al. (1989) reported that the small intestinal transit time in beagle dog is 3.0±1.4 h. Additionally, the transit of the test preparation was monitored by a direct examination of the dog intestine by abdominal incision. In this study, the delivery of these preparations to the ascending colon at 4 hr after administration was confirmed. In addition, to estimate the colon arrival time in the beagle dogs, sulfasalazine which is a pro-drug of 5ASA and is cleaved to sulfapyridine and 5ASA in the colon by azo-reductase of intestinal microflora was administered to the dogs. Sulfapyridine starts to appear in the blood circulation at 4 hr after administration and reaches to its maximum concentration at 10-12 hr (J. Pharm. Pharmacol., 1995 in press). Accordingly, colon arrival time has been estimated to be 4 hr in our beagle dogs.
# [6] = tested on: blood total leukocyte (BTL) count; experiment: Pharmacodynamic study: blood total leukocyte (BTL) count after oral administration of rhG-CSF capsule to beagle dogs; type: in vivo, beagle dog; conditions: 25 μg/kg oral, three dogs
# Experimental: The test capsule, a preparation of Example 6, was orally administered to beagle dogs. At 30 min before drug administration, 0.6 ml of the blank blood sample was removed from the dog jugular vein. After administration, 0.1 ml of blood samples were collected at 10, 24, 36, 48, 60, 72 and 96 h. […] of the blood sample was used for blood total leukocyte (BTL) count. The BTL count was performed by microcell counter CC-180A (Sysmex, Toa Medical Electronics). The BTL count is expressed as a relative value, which is obtained by the respective control BTL count, namely the pre-dosing BTL count.
molecule,measurement,setting,value
"Nc1ccc(S(=O)(=O)Nc2ccccn2)cc1 [Sulfapyridine, sulfapyridine]",time at which sulfapyridine starts to appear in the blood circulation,[1],4 h
N.N.[Cl][Pt][Cl] [cisplatin],"release rate of cisplatin, effect of pore number",[2]; gel-forming polymer 100 mg,the pore number did not affect the release rate of cisplatin any more
same,effect of increase of the amount of gel-forming polymer on release,[2]; pore number 20,the effect of the increase of the amount of gel-forming polymer did not appear
same,"release rate of cisplatin, effect of pore number","[2]; pore number 20 to 30, gel-forming polymer 25 mg and 50 mg",the release rate of cisplatin increases
same,"release rate of cisplatin, effect of amount of gel-forming polymer","[2]; pore number 30 and 60, gel-forming polymer 25 mg to 50 mg",the release rate of cisplatin decreases
same,prolonged effect of pore number,"[2]; pore number 30 to 60, gel-forming polymer 25 mg and 50 mg",prolonged effect was not observed
same,"serum cisplatin levels, effect of pore number","[3]; pore number 20 to 30, carbopol 25 mg (FIG. 4)",significantly increases as the pore number increases from 20 to 30
same,"serum cisplatin level vs. time curves, effect of amount of gel-forming polymer",[3]; pore number 30 (FIG. 5),there is not a significant difference
O=C1OC2(c3ccc(O)cc3Oc3cc(O)ccc32)c2ccccc21 [fluorescein],capsule thickness vs. in vivo Tmax,[4],good corelationship between the capsule thickness and the in vivo Tmax
O=C(O)c1cc(/N=N/c2ccc(S(=O)(=O)Nc3ccccn3)cc2)ccc1O [sulfasalazine],colon arrival time,[5],4 h
"rhG-CSF: recombinant human granulocyte colony-stimulating factor, given orally as the capsule of Example 6 (protein, UniProt P09919 31-207, looked up) Granulocyte …: TPLGPASSLPQSFLLKCLEQVRKIQGDGAALQEKLVSECATYKLCHPEELVLLGHSLGIPWAPLSSCPSQALQLAGCLSQLHSGLFLYQGLLQALEGISPELGPTLDTLQLDVADFATTIWQQMEELGMAPALQPTQGAMPAFASAFQRRAGGVLVASHLQSFLEVSYRVLRHLAQP",BTL count relative to pre-dose level,[6],1.3 folds of pre-dose level
same,time at which BTL count starts to increase,[6],10 h
same,BTL count return to the normal level,[6]; end of the experiment,96 h
